The test system of data set [1] is Influenza virus A/CA/10/2009. In words: microbe, parasite or virus in culture. The format is cell-based. Particulars: unidentified influenza virus, MDCK, read-out: A/CA/10/2009 (EC50, μM).
For data set [2], the system named is Influenza virus B/FL/4/2006. In words: microbe, parasite or virus in culture. The format is cell-based. Particulars: unidentified influenza virus, MDCK, read-out: B/FL/4/2006 (EC50, μM).
Data set [3] in a line: in vitro. Particulars: dog.
Data set [4] deals with HCMV (Strain AD169). In words: Plaque reduction assay, HCMV AD169 in human foreskin fibroblast cells. The format is cell-based, Human Cytomegalovirus (HCMV). Particulars: Human betaherpesvirus 5, AD169, Fibroblast. For orientation: Plaques are areas of infected cells; plaque reduction assays count them against a control.
Data set [5] can be described thus: in vitro. The settings on record: human.
Data set [6] has as its system Herpes Simplex Virus 1 (Strain E-377). The data set is described as follows: Plaque reduction assay, HSV-1 in human foreskin fibroblast cells. The settings on record: Human alphaherpesvirus 1; Strain E-377, human foreskin fibroblast cells. The format is cell-based.
In data set [7] the test system is Epstein-Barr virus. The data set is described as follows: DNA Hybridization Assay for EBV in Akata cells. The format is cell-based. Particulars: human gammaherpesvirus 4, read-out: Efficacy DNA Hybridization Assay (EC50). Here is the method: Akata cells latently infected with EBV were obtained from John Sixbey. The GS strain of HHV-6A was obtained through the NIH AIDS Research and Reference Reagent Program.
Each experiment that evaluated the antiviral activity of the compounds included both positive and negative control compounds to ensure the performance of each assay. Concurrent assessment of cytotoxicity was also performed for each study at equivalent levels of compound exposure. When sufficient material was available, multiple assays were performed for each compound evaluation to obtain statistical data.
Assays for EBV were performed in Akata cells that were induced to undergo a lytic infection with 50 μg/ml of a goat anti-human IgG antibody by standard methods. Experimental compounds were diluted in round bottom 96-well plates to yield concentrations ranging from 20 to 0.016 μM. Akata cells were added to the plates at a concentration of 4×10^4 cells per well and incubated for 72 h. For HHV-6 assays, compounds were serially diluted in 96-well plates then 1×10^4 uninfected HSB-2 or Molt-3 cells were added to each well. Infection was initiated by adding HHV-6A infected HSB-2 cells, or HHV-6B infected Molt-3 cells, at a ratio of approximately 1 infected cell for every 10 uninfected HSB-2 cells or Molt-3 cells respectively and incubated for 7 d at 37° C. […]

Data set [8] can be described thus: in vitro. Particulars: human. This is another data set of the same source.
Data set [9] relates to Vaccinia Virus (Strain Copenhagen). The data set is described as follows: microbe, parasite or virus in culture. The settings on record: Orthopoxvirus vaccinia, Fibroblast, read-out: VACV EC50, μM. Type of data set: cell-based.
In data set [10] the test system is Cowpox Virus (Strain Brighton). The data set is described as follows: microbe, parasite or virus in culture. The settings on record: Fibroblast, read-out: CPXV EC50, μM. The format is cell-based.
Data set [11] deals with human foreskin fibroblast cells. The data set is described as follows: Neutral red cytotoxicity assay in human foreskin fibroblast cells. Particulars: read-out: VACV CC50, μm, parallel to VACV assay (second printing of Table 4).
Data set [12] has as its system HCMV UL54 resistant mutant D542E (HDP-CDV^R). In words: microbe, parasite or virus in culture. The format is cell-based, Human Cytomegalovirus (HCMV). Particulars: Human betaherpesvirus 5, Fibroblast.
Data set [13] relates to HCMV UL54 resistant mutant GDG^RP53. In words: microbe, parasite or virus in culture. The format is cell-based, Human Cytomegalovirus (HCMV). The settings on record: Human betaherpesvirus 5, Fibroblast.
Data set [14] concerns HCMV UL54 resistant mutant 4955^R. In words: microbe, parasite or virus in culture. Particulars: Human betaherpesvirus 5, Fibroblast. Type of data set: cell-based, Human Cytomegalovirus (HCMV).
Data set [15] deals with Human Cytomegalovirus (HCMV). In words: HCMV EC50 in MRC-5 cells (qPCR of intracellular CMV DNA). Type of data set: cell-based. Particulars: Human betaherpesvirus 5, MRC5. Here is the method:
Costar 96-well tissue culture plates were seeded with 20,000 MRC-5 cells/well in EMEM containing 2% Hyclone Standard Fetal Bovine Serum and 1% Hyclone Penicillin and Streptomycin. Outer wells were not used to minimize the edge-effect produced by extended incubations. Cells were inoculated with HCMV at an MOI of 0.01. Serial dilutions of test compounds were added to the cells and plates were incubated for 7 days at 37° C. in 5% CO2. […] Culture medium was gently removed from infected cells after the 7-day incubation. The cells were rinsed twice with ice-cold PBS, and then freeze/thawed once. Each well was incubated with 200 μL lysis buffer for 2 hours at 55° C. Lysis buffer included 0.5 mg/mL protease K, 50 mM KCl, 10 mM Tris-Cl pH 8.0, 2.5 mM MgCl2, 0.45% IGEPAL, and 0.45% Tween-20 dissolved in DEPC-treated water. Intracellular CMV DNA was measured by quantitative polymerase chain reaction (qPCR) using forward and reverse HCMV PCR primers, and a FAM-labeled probe. Absolute quantitation of viral copy number was performed using a standard curve with dilutions of a HCMV DNA amplicon containing sequences homologous to the amplified fragment. The following qPCR amplification conditions were used: 1 cycle at 95° C. for 10 minutes, followed by 45 cycles of 95° C. for 15 seconds and 60° C. for 60 seconds. The qPCR reactions were performed using an Applied Biosystems 7500 real Time PCR System. Gen 5 software (BioTek Instruments, Inc.) was used to calculate the concentration which inhibited the viral DNA levels of HCMV-infected MRC-5 cells by 50% (EC50).

The subject of data set [16] is BKV (Gardner strain). The data set is described as follows: BKV EC50 in Vero cells (qPCR of supernatant BKV DNA). Type of data set: cell-based, BK virus (BKV). The settings on record: Betapolyomavirus hominis; BKV in Vero cells (Table 7); read-out: BKV EC50. Here is the method: Costar 96-well tissue culture plates were seeded with 10,000 Vero cells/well in DMEM containing 2% Hyclone Standard Fetal Bovine Serum (FBS, Cat 5H30088.03) and 1% Hyclone Penicillin and Streptomycin. Outer wells were not used to minimize the edge-effect produced by extended incubations. Cells were inoculated with 115 BKV DNA copies/cell (ATCC, Gardner strain). Serial dilutions of test compounds were added to the cells and plates were incubated for 10 days at 37° C. in 5% CO2. After the 10-day incubation, 50 μL supernatant was mixed with 50 μL 2× lysis buffer that provided a final concentration 0.5 mg/mL protease K, 50 mM KCl, 10 mM Tris-Cl pH 8.0, 2.5 mM MgCl2, 0.45% IGEPAL, and 0.45% Tween-20 dissolved in DEPC-treated water. Each plate was incubated for 2 hours at 55° C. Supernatant BKV DNA was measured by quantitative polymerase chain reaction (qPCR) using forward and reverse BKV PCR primers, and a FAM-labeled probe. Absolute quantitation of viral copy number was performed using a standard curve with dilutions of a BKV DNA amplicon containing sequences homologous to the amplified fragment. The following qPCR amplification conditions were used: 1 cycle at 95° C. for 10 minutes, followed by 45 cycles of 95° C. for 15 seconds and 60° C. for 60 seconds. The qPCR reactions were performed using an Applied Biosystems 7500 real Time PCR System. Gen 5 software (BioTek Instruments, Inc.) was used to calculate the concentration which inhibited the viral DNA levels of BKV-infected Vero cells by 50% (EC50).

Data set [17] in a line: Cytotoxicity (CC50) in MT4 cells. Type of data set: cell-based. Particulars: human. How it is done:
Costar 96-well tissue culture plates were seeded with 5,000 MT4 cells (NIH AIDS Reagents Program)/well in RPMI (Lonza, Cat 12-11F) containing 10% Hyclone Standard Fetal Bovine Serum (FBS, Cat 5H30088.03), 1% Hyclone Penicillin and Streptomycin (Cat SV30010), and 2 mM Lonza L-Glutamine (Cat 17-605E). Outer wells were not used to minimize the edge-effect produced by extended incubations. Serial dilutions of test compounds were added to the cells and plates were incubated for 6 days at 37° C. in 5% CO2. After 6 days of incubation 40 μL of Cell Titer 96® Aqueous MTS Reagent (Promega, G111) was added as directed by manufacturer to the 200 μL media in each well and incubated at 37° C. until the untreated-cell controls developed an 490 nm absorbance between 1.1 and 1.8. The final absorbance readings were read using a BioTek Synergy 2, and Gen 5 software (BioTek Instruments, Inc.) was used to calculate the concentration which inhibited MT4 cells by 50% (CC50).

[18] abbreviates: Mean XC50 (Table 9), read-out: HCMV EC50.
Setting [19] is: Mean XC50 (Table 9), read-out: MT4 cytotoxicity CC50.

These results are taken from US20170029451A1, “BRANCHED CHAIN ACYCLIC NUCLEOSIDE PHOSPHONATE ESTERS AND METHODS OF SYNTHESIS AND USES THEREOF” (CHIMERIX, INC., priority 2013, published 2017).

Molecules are shown by their SMILES. Where two headings read alike, the source gives them in different places. Some results are limits rather than exact numbers.

As to `CCOC(=O)C1=C[C@@H](OC(CC)CC)[C@H](NC(C)=O)[C@@H](N)C1` [Oseltamivir, reference compound], the values for the EC50 in data set [1] and in data set [2] were 0.17 µM and 16.2 µM, respectively. Also, in data set [3], the CC50 is > 20 µM.

Regarding `Nc1nc(O)c2ncn(COC(CO)CO)c2n1` [Ganciclovir, reference compound], in [4] (Strain AD169, human foreskin fibroblast cells, read-out: HCMV EC50), the EC50 turned out to be 1.5 µM. In addition, the CC50 in [5] was > 100 µM.

For `Nc1nc2c(ncn2COCCO)c(=O)[nH]1` [Acyclovir, reference compound], the EC50 in data set [6] amounted to 2.2 µM; in [7] it was 7 µM. Further, the CC50 in data set [5] and in data set [8] was > 100 µM throughout.

On to `Nc1ccn(C[C@@H](CO)OCP(=O)(O)O)c(=O)n1` [Cidofovir, reference compound], for which the EC50 in data set [9] amounted to 22.4 µM; in data set [10] it was 30.5 µM. In addition, the CC50 in [5] (CPXV CC50, μM, Human Foreskin Fibroblast Cells, parallel to CPXV assay) is > 300 µM; in data set [11], > 300 µM.

Turning to `CCCCCCCCCCCCCCCCOCCCOP(=O)(O)CO[C@H](CO)Cn1ccc(N)nc1=O` [HDP-CDV, Hexadecyloxypropyl-Cidofovir, reference compound], the EC50 came to 0.001 µM in data set [4] (Virus AD169, human foreskin fibroblast cells (Table 3), read-out: EC50); 0.0295 µM in data set [12] (read-out: EC50 μM, Virus D542E (HDP-CDV^R), human foreskin fibroblast cells); 0.0053 µM in [13] (read-out: EC50 μM, Virus GDG^RP53, human foreskin fibroblast cells); 0.0013 µM in data set [14] (read-out: EC50 μM, Virus 4955^R, human foreskin fibroblast cells); 0.0004 µM in data set [15] (HCMV in MRC-5 cells (Table 7), read-out: CMV EC50); 0.0003 µM in data set [15] (setting [18]). Also, in data set [16], the EC50 came to 0.018 µM. For the same compound, the EC90 was determined as 0.153 µM in data set [12] (read-out: EC90 μM), 0.0316 µM in data set [13] (read-out: EC90 μM) and 0.006 µM in data set [14] (read-out: EC90 μM). For the same compound, the CC50 at 6 days in [17] (MT4 cells (Table 7), read-out: MT4 CC50) stood at 0.06 µM; in [17] (setting [19]), 0.06 µM.

Turning to `CCCCCCCCCCCCCCCCOCCCOP(=O)(O)CO[C@H](CO)Cn1ccc(=O)[nH]c1=O` [Compound 24], the EC50 in data set [15] (setting [18]) was determined as 0.008 µM. Besides, the CC50 at 6 days in data set [17] (setting [19]) was 13.5 µM.

A word on the EC90: it is the concentration at which the effect reaches the 90% level.
